# According to patent US5431922A (Bristol-Myers Squibb Company, priority 1993, dated 1995):
# Legend:
# [1] = Johansson et al. 1971; cited from earlier work
# [2] = system: diazepam-withdrawn animals; details: cited from earlier work
# [3] = pharmacologic testing; cited from earlier work
# [4] = in vivo, cited from earlier work
# rat = assay: Rat forced swim test (antidepressant screening); type: in vivo
# [5] = system: patients undergoing diazepam-withdrawal; details: human, in vivo; cited from earlier work
compound,measurement,setting,value
C=CCc1ccccc1OCC(O)CNC(C)C (stereo not shown) [alprenolol],metabolism in controlled/extended release form vs conventional tablets (in words),[1],more complete when it was administered in a controlled/extended release form than in conventional tablets
"c1cnc(N2CCNCC2)nc1 [Example 1-PP, 1-(2-pyrimidinyl)piperazine]",effect on social interaction,[2]; diazepam-naive subjects,had not shown any effect
same,effect in social interaction paradigm,[2]; diazepam-withdrawn animals,anxiogenic effect
same,anxiolytic potency relative to buspirone,[3],20-25%
same,elimination (in words),[4],much slower elimination
same,blockade of activity of intracerebral buspirone in forced swim test,rat; systemic administration of 1-PP,blocked
"O=C1CC2(CCCC2)CC(=O)N1CCCCN1CCN(c2ncccn2)CC1 [Buspirone, 8-[4-[4-(2-pyrimidinyl)1-piperazinyl]butyl]-8-azaspiro(4,5)-decane-7,9-dione]",treatment of patients undergoing diazepam-withdrawal,[5],failed to adequately treat patients undergoing diazepam-withdrawal
same,biological half-life,[4]; human,2-11 hours
same,activity in rat forced swim test,rat; given intracerebrally,active
same,activity in rat forced swim test,rat; given systemically,inactive
